{
  "source": "patent US5627270A",
  "about": "“Glycosylated steroid derivatives for transport across biological membranes and process for making and using same” (Trustees of Princeton University, priority 1994, dated 1997)",
  "key": {"[1]": {"conditions": "rat, in vivo"}, "[2]": {"conditions": "rat, in vivo", "remark": "listed apart in the source"}, "[3]": {"conditions": "rat, in vivo, 100000 uM"}, "[4]": {"assay": "Enhanced transmucosal delivery of co-administered agents in rat ileum or colon", "assay_type": "in vivo"}, "[5]": {"conditions": "rat, in vivo", "remark": "listed apart in the source"}, "Crithidia fasciculate": {"tested_on": "Crithidia fasciculate", "conditions": "antifungal agent alone; cited from earlier work"}, "[6]": {"assay": "Plasma calcitonin after ileal co-administration in the rat", "conditions": "absence of 1"}},
  "note": "Entries after “also recorded” stand apart in the source; their conditions may differ.",
  "data": [
    {"molecule": "COC(=O)CC[C@@H](C)[C@H]1CC[C@H]2[C@@H]3[C@H](O[C@H]4O[C@H](CO)[C@@H](O)[C@H](O)[C@H]4O)C[C@@H]4C[C@@H](N)CC[C@]4(C)[C@H]3C[C@H](O[C@H]3O[C@H](CO)[C@@H](O)[C@H](O)[C@H]3O)[C@]12C", "note": "[Compound 1, 3β-amino-7α,12α-di(1'α-glucosyl)-5β-cholic acid methyl ester]", "values": [
      {"measurement": "plasma concentrations of gentamicin versus concentration of 1", "setting": "[1]", "value": "increasing plasma concentrations of the gentamicin"},
      {"measurement": "plasma calcitonin versus amount of 1", "setting": "[2]", "value": "plasma calcitonin levels rise with increasing amounts of 1"},
      {"measurement": "bioavailability of calcitonin", "setting": "[2]; po", "value": "significant amounts of calcitonin are made available with co-administration of 1"},
      {"measurement": "peak plasma levels of vancomycin", "setting": "[3]", "value": "15 to 47", "unit": "µg/mL"},
      {"measurement": "plasma levels of co-administered agents", "setting": "[4]", "value": "increase the plasma levels of proteinaceous compounds; also recorded: resembled pharmacokinetic profiles of agents administered intravenously"},
      {"measurement": "time to almost peak gentamicin levels", "setting": "[5]; 10000 uM", "value": "≤ 10", "unit": "min"},
      {"measurement": "ileal bioavailability of gentamicin", "setting": "[5]; 30000 uM", "value": 19.8, "unit": "%"}
    ]},
    {"molecule": "CCCCCCCCSCCCCCCCCC(=O)O", "note": "[Entry 10-TSA, 10-thiastearic acid]", "values": [
      {"measurement": "IC50", "setting": "Crithidia fasciculate", "value": 10, "unit": "µM"}
    ]},
    {"molecule": "calcitonin", "values": [
      {"measurement": "plasma calcitonin", "setting": "[6]", "value": "no appreciable amounts of calcitonin are found in the blood"}
    ]}
  ]
}
